# Laboratory results taken from ChEMBL document CHEMBL1144807, “Ciliatamides A-C, bioactive lipopeptides from the deep-sea sponge Aaptos ciliata” (J Nat Prod, 2008).
# Active and inactive are the calls of the source. No cut-off for these calls is given here.
# Experiments:
# Leishmania major = assay: Antileishmanial activity against Leishmania major egfp promastigotes at 10 ug/ml; assay type: functional; settings: for inhibition of growth at 10 µg/mL: read-out: GI
# HeLa = assay: Cytotoxicity against human HeLa cells lines by MTT assay; assay type: cell-based
SMILES,inhibition of growth at 10 µg/mL (Leishmania major) [%],IC50 (HeLa) [µg/mL],Activity (Leishmania major)
C=CCCCCCCCC(=O)N(C)[C@@H](Cc1ccccc1)C(=O)N[C@H]1CCCCNC1=O [CILIATAMIDES A],50,50,
CCCCCCCC(=O)N(C)[C@@H](Cc1ccccc1)C(=O)N[C@H]1CCCCNC1=O [CILIATAMIDES B],45.5,4.5,
C=CCCCCCCCC(=O)N(C)[C@@H](Cc1ccccc1)C(=O)N[C@H]1CCCNC1=O [CILIATAMIDES C],,50,inactive
